Reference: patent US20160257697A1, “THIOPHENE-SUBSTITUTED TETRACYCLIC COMPOUNDS AND METHODS OFUSE THEREOF FOR THE TREATMENT OF VIRAL DISEASES” (priority 2013, published 2016)
Read-outs that look alike come from different tables or passages of the source.

Tests used:
Test in all cases: microbe, parasite or virus in culture
Type in all cases: cell-based, Hepatitis C virus (HCV)
Details in all cases: Replicon Assay A
HCV replicon 1A = test system: HCV replicon 1A
In short: (§1)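 Three-day treatment of replicon cells (2000/well, 5% FBS, 0.5% DMSO), followed by TaqMan RT-PCR of replicon RNA with cyclophilin as internal control.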

HCV replicon 1AY93H = test system: HCV replicon 1AY93H
In short: as §1

HCV replicon 2B = test system: HCV replicon 2B
In short: as §1

[1] = read-out: 1A Y93H IC50, replicon 1AY93H
[2] = Hepatitis C virus, HCV replicon 1A
[3] = Hepatitis C virus, read-out: 1A Y93H IC50, HCV replicon 1A Y93H
[4] = Hepatitis C virus, read-out: 2B IC50, HCV replicon 2B
[5] = read-out: 1A Y93H IC50, HCV replicon 1A Y93H
[6] = read-out: 2B IC50, HCV replicon 2B
[7] = Hepatitis C virus, read-out: 1A Y93H IC50 (nM), replicon 1AY93H
[8] = Hepatitis C virus, read-out: 2B IC50 (nM), replicon 2B

Row | SMILES | IC50 (HCV replicon 1A; replicon 1A) [pM] | IC50 (HCV replicon 1AY93H; [1]) [nM] | IC50 (HCV replicon 2B; read-out: 2B IC50, replicon 2B) [nM] | also measured
1 | COC(=O)NC(C(=O)N1CCC[C@H]1c1ncc(-c2ccc3c(c2)cc2n3C(c3ccc(C4CC4)s3)Oc3cc(-c4cnc([C@@H]5CCCN5C(=O)[C@@H](NC(=O)OC)C(C)C)[nH]4)cc(F)c3-2)[nH]1)C1C[C@@H](C)O[C@H](C)C1 (single isomer, unassigned) [Compound 193] | 25.6 | 4.75 | 18.6 | –
2 | COC(=O)N[C@H](C(=O)N1CCC[C@H]1c1ncc(-c2cc(C)c3c(c2)OC(c2cc4c(s2)CCC4)n2c-3cc3cc(-c4cnc([C@@H]5CCCN5C(=O)[C@@H](NC(=O)OC)C5CCOCC5)[nH]4)ccc32)[nH]1)C(C)C (single isomer, unassigned) [Compound 540] | – | – | – | IC50 (HCV replicon 1A; [2]): 8.59 pM; IC50 (HCV replicon 1AY93H; [3]): 2.14 nM; IC50 (HCV replicon 2B; [4]): 0.147 nM
3 | COC(=O)NC(C(=O)N1CCC[C@H]1c1ncc(-c2ccc3c(c2)cc2n3C(c3ccc(C(C)C)s3)Oc3cc(-c4cnc([C@@H]5CCCN5C(=O)[C@@H](NC(=O)OC)C(C)C)[nH]4)cc(F)c3-2)[nH]1)C1CCOC(C)(C)C1 (single isomer, unassigned) [Compound 238] | 130 | 3.12 | 7.05 | –
4 | COC(=O)N[C@H](C(=O)N1C[C@H](F)C[C@H]1c1nc(-c2ccc3c(c2)OC(c2ccc(C)s2)n2c-3cc3cc(-c4c[nH]c([C@@H]5C[C@H]6C[C@H]6N5C(=O)[C@@H](NC(=O)OC)C5CCOCC5)n4)ccc32)c[nH]1)C1CCOCC1 (single isomer, unassigned) [Compound 731] | – | – | – | IC50 (HCV replicon 1A; HCV replicon 1A): 24 pM; IC50 (HCV replicon 1AY93H; [5]): 0.026 nM; IC50 (HCV replicon 2B; [6]): 0.021 nM
5 | COC(=O)N[C@H](C(=O)N1CCC[C@H]1c1ncc(-c2cc(F)c3c(c2)OC(c2csc4ccccc24)n2c-3cc3cc(-c4cnc([C@@H]5CCCN5C(=O)[C@@H](NC(=O)OC)C(C)C)[nH]4)ccc32)[nH]1)C(C)C (single isomer, unassigned) [Compound 324] | 1.4 | 4.89 | 7.99 | –
6 | COC(=O)N[C@H](C(=O)N1CCC[C@H]1c1ncc(-c2ccc3c(c2)OC(c2cc(C)c(C)s2)n2c-3cc3cc(-c4cnc([C@@H]5C[C@H]6C[C@H]6N5C(=O)[C@@H](NC(=O)OC)C(C)C)[nH]4)ccc32)[nH]1)C(C)C (single isomer, unassigned) [Compound 502] | – | – | – | IC50 (HCV replicon 1A; HCV replicon 1A): 12.1 pM; IC50 (HCV replicon 1AY93H; [5]): 0.575 nM; IC50 (HCV replicon 2B; [6]): 0.0575 nM
7 | COC(=O)N[C@H](C(=O)N1CCC[C@H]1c1ncc(-c2cc(F)c3c(c2)OC(c2ccc(C(C)C)s2)n2c-3cc3cc(-c4cnc([C@@H]5CCCN5C(=O)[C@@H](NC(=O)OC)C5CCOCC5)[nH]4)ccc32)[nH]1)C(C)C (single isomer, unassigned) [Compound 344] | – | 0.128 | 0.242 | IC50 (HCV replicon 1A; Hepatitis C virus, replicon 1A): 1.5 pM
8 | COC(=O)NC(C(=O)N1CCC[C@H]1c1ncc(-c2ccc3c(c2)cc2n3C(c3ccc(C4CC4)s3)Oc3cc(-c4cnc([C@@H]5CCCN5C(=O)[C@@H](NC(=O)OC)C(C)C)[nH]4)cc(F)c3-2)[nH]1)C1CCO[C@@H](C)C1 (single isomer, unassigned) [Compound 354] | – | 0.38 | 0.602 | IC50 (HCV replicon 1A; Hepatitis C virus, replicon 1A): 2 pM
9 | COC(=O)N[C@H](C(=O)N1CCC[C@H]1c1nc(-c2cc(F)c3c(c2)OC(c2ccc(C4CC4)s2)n2c-3cc3cc(-c4c[nH]c([C@@H]5C[C@H]6C[C@H]6N5C(=O)[C@@H](NC(=O)OC)[C@@H](C)OC)n4)ccc32)c[nH]1)C(C)C (mixture of isomers) [Compound 723] | – | – | – | IC50 (HCV replicon 1A; [2]): 2.7 pM; IC50 (HCV replicon 1AY93H; [3]): 0.046 nM; IC50 (HCV replicon 2B; [4]): 0.08 nM
10 | COC(=O)N[C@H](C(=O)N1CCC[C@H]1c1ncc(-c2cc(F)c3c(c2)OC(c2cc4nccnc4s2)n2c-3cc3cc(-c4cnc([C@@H]5CCCN5C(=O)[C@@H](NC(=O)OC)C(C)C)[nH]4)ccc32)[nH]1)C(C)C (single isomer, unassigned) [Compound 47] | – | 1.54 | 0.77 | IC50 (HCV replicon 1A; Hepatitis C virus, replicon 1A): 1.6 pM
11 | COC(=O)NC(C(=O)N1CCC[C@H]1c1ncc(-c2ccc3c(c2)cc2n3C(c3cc(C)c(C)s3)Oc3cc(-c4cnc([C@@H]5CCCN5C(=O)[C@@H](NC(=O)OC)C5CCOCC5)[nH]4)cc(F)c3-2)[nH]1)C(C)(C)F (single isomer, unassigned) [Compound 129] | 1 | 0.8 | 1.17 | –
12 | COC(=O)NC(C(=O)N1[C@@H]2C[C@@H]2C[C@H]1c1ncc(-c2ccc3c(c2)c(F)c2n3C(c3ccc(C4CC4)s3)Oc3cc(-c4cnc([C@@H]5CCCN5C(=O)[C@@H](NC(=O)OC)C(C)C)[nH]4)cc(F)c3-2)[nH]1)C1CCOC(C)(C)C1 (single isomer, unassigned) [Compound 422] | – | – | – | IC50 (HCV replicon 1A; [2]): 2.3 pM; IC50 (HCV replicon 1AY93H; [5]): 0.107 nM; IC50 (HCV replicon 2B; [6]): 0.138 nM
13 | COC(=O)NC(C(=O)N1CCC[C@H]1c1ncc(-c2ccc3c(c2)cc2n3C(c3ccc(C4CC4)s3)Oc3cc(-c4cnc([C@@H]5CCCN5C(=O)[C@@H](NC(=O)OC)C(C)C)[nH]4)cc(F)c3-2)[nH]1)C1CC2CCC(C1)O2 (single isomer, unassigned) [Compound 181] | 2.3 | – | – | IC50 (HCV replicon 1AY93H; [7]): 0.054 nM; IC50 (HCV replicon 2B; [8]): 0.083 nM
14 | CCCc1ccc(C2Oc3cc(-c4cnc([C@@H]5CCCN5C(=O)[C@@H](NC(=O)OC)C(C)C)[nH]4)cc(F)c3-c3cc4cc(-c5cnc([C@@H]6CCCN6C(=O)[C@@H](NC(=O)OC)C(C)C)[nH]5)ccc4n32)s1 (single isomer, unassigned) [Compound 33] | – | – | – | IC50 (HCV replicon 1A; Hepatitis C virus, replicon 1A): 1.8 pM; IC50 (HCV replicon 1AY93H; [7]): 0.28 nM; IC50 (HCV replicon 2B; [8]): 1.89 nM
15 | COC(=O)N[C@H](C(=O)N1CCC[C@H]1c1ncc(-c2cc(F)c3c(c2)OC(c2ccsc2)n2c-3cc3cc(-c4cnc([C@@H]5CCCN5C(=O)[C@@H](NC(=O)OC)C(C)C)[nH]4)ccc32)[nH]1)C(C)C (single isomer, unassigned) [Compound 318] | 1.9 | 5.9 | 6.87 | –
16 | COC(=O)NC(C(=O)N1CCC[C@H]1c1ncc(-c2ccc3c(c2)cc2n3C(c3ccc(C4CC4)s3)Oc3cc(-c4cnc([C@@H]5CCCN5C(=O)[C@@H](NC(=O)OC)C5CCOCC5)[nH]4)cc(F)c3-2)[nH]1)C(C)(C)F (single isomer, unassigned) [Compound 174] | 1.1 | 0.614 | 0.16 | –
17 | CCOC(C)[C@H](NC(=O)OC)C(=O)N1CCC[C@H]1c1ncc(-c2cc(F)c3c(c2)OC(c2cc(C)c(C)s2)n2c-3cc3cc(-c4cnc([C@@H]5CCCN5C(=O)[C@@H](NC(=O)OC)C(C)C)[nH]4)ccc32)[nH]1 (single isomer, unassigned) [Compound 80] | 2.7 | 4.87 | 3.16 | –
18 | COC(=O)NC(C(=O)N1CCC[C@H]1c1ncc(-c2cc(F)c3c(c2)OC(c2ccc(C4CC4)s2)n2c-3cc3cc(-c4cnc([C@@H]5CCCN5C(=O)[C@@H](NC(=O)OC)C5CCOCC5)[nH]4)ccc32)[nH]1)C(C)(C)F (single isomer, unassigned) [Compound 171] | 13.1 | 1.4 | 4.06 | –
19 | CCN(CC)[C@@H](C(=O)N1C[C@H](F)C[C@H]1c1nc(-c2ccc3c(c2)OC(c2ccc(C4CC4)s2)n2c-3cc3cc(-c4c[nH]c([C@@H]5C[C@@H](F)CN5C(=O)[C@@H](c5ccccc5)N(CC)CC)n4)ccc32)c[nH]1)c1ccccc1 (mixture of isomers) [Compound 733] | – | – | – | IC50 (HCV replicon 1A; [2]): 45 pM; IC50 (HCV replicon 1AY93H; [3]): 0.35 nM; IC50 (HCV replicon 2B; [4]): 0.063 nM
20 | COC(=O)N[C@H](C(=O)N1CCC[C@H]1c1nc(-c2ccc3c(c2)OC(c2ccc(C)s2)n2c-3cc3cc(-c4c[nH]c([C@@H]5NCCN5C(=O)[C@@H](NC(=O)OC)C(C)C)n4)ccc32)c[nH]1)C(C)C (single isomer, unassigned) [Compound 702] | – | – | – | IC50 (HCV replicon 1A; HCV replicon 1A): 7.4 pM; IC50 (HCV replicon 1AY93H; [5]): 3.85 nM; IC50 (HCV replicon 2B; [6]): 3.98 nM
21 | COC(=O)NC(C(=O)N1CCC[C@H]1c1ncc(-c2ccc3c(c2)cc2n3C(c3ccc(C4CC4)s3)Oc3cc(-c4cnc([C@@H]5CCCN5C(=O)[C@@H](NC(=O)OC)C(C)C)[nH]4)cc(F)c3-2)[nH]1)C1CN(C(=O)OC)C1 (single isomer, unassigned) [Compound 227] | 1.9 | 0.15 | 0.17 | –
22 | COC(=O)NC(C(=O)N1CCC[C@H]1c1ncc(-c2ccc3c(c2)cc2n3C(c3ccc(C4CC4)s3)Oc3cc(-c4cnc([C@@H]5C[C@@H](F)CN5C(=O)[C@@H](NC(=O)OC)C(C)C)[nH]4)cc(F)c3-2)[nH]1)C(C)(C)F (single isomer, unassigned) [Compound 115] | 1.1 | 0.05 | 9.84 | –
23 | COC(=O)NC(C(=O)N1CCC[C@H]1c1ncc(-c2cc(F)c3c(c2)OC(c2ccc(C4CC4)s2)n2c-3cc3cc(-c4cnc([C@@H]5CCCN5C(=O)C(NC(=O)OC)C(C)(C)F)[nH]4)ccc32)[nH]1)C(C)(C)F (single isomer, unassigned) [Compound 110] | – | 1.97 | 2.43 | IC50 (HCV replicon 1A; Hepatitis C virus, replicon 1A): 2 pM
24 | COC(=O)NC(C(=O)N1CCC[C@H]1c1ncc(-c2ccc3c(c2)cc2n3C(c3ccc(C4CC4)s3)Oc3cc(-c4cnc([C@@H]5CCCN5C(=O)[C@@H](NC(=O)OC)C(C)C)[nH]4)cc(F)c3-2)[nH]1)C1CC(C)(C)OC(C)(C)C1 (single isomer, unassigned) [Compound 420] | – | – | – | IC50 (HCV replicon 1A; [2]): 2.9 pM; IC50 (HCV replicon 1AY93H; [5]): 3.13 nM; IC50 (HCV replicon 2B; [6]): 6.03 nM
25 | COCCc1ccc(C2Oc3cc(-c4cnc([C@@H]5CCCN5C(=O)[C@@H](NC(=O)OC)C(C)C)[nH]4)cc(F)c3-c3cc4cc(-c5cnc([C@@H]6CCCN6C(=O)[C@@H](NC(=O)OC)C(C)C)[nH]5)ccc4n32)s1 (single isomer, unassigned) [Compound 81] | – | – | – | IC50 (HCV replicon 1A; Hepatitis C virus, replicon 1A): 1.4 pM; IC50 (HCV replicon 1AY93H; [7]): 0.41 nM; IC50 (HCV replicon 2B; [8]): 1.32 nM
